According to PubChem BioAssay (NCI):
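Tested at 5 concentrations; 48 h exposure; 96-well plates; endpoints linearly interpolated, else capped at highest concentration. The concentration for 50% growth inhibition is given as GI50. TGI marks complete inhibition of growth.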

How the values were obtained:
Assay in all cases: growth of human tumour cells (NCI), 48 h; in the data active = GI50 below about 0.43 µM; inactive = the rest
786-0 renal = test system: 786-0 renal
NCI-H23 lung = test system: NCI-H23 lung
OVCAR-8 ovarian = test system: OVCAR-8 ovarian
HOP-62 NSCLC = test system: HOP-62 NSCLC
MCF7 breast = test system: MCF7 breast
PC-3 prostate = test system: PC-3 prostate
HCC-2998 colon = test system: HCC-2998 colon
SW-620 colon = test system: SW-620 colon
M14 melanoma = test system: M14 melanoma
UACC-257 melanoma = test system: UACC-257 melanoma
HCT-116 colon = test system: HCT-116 colon
COLO 205 colon = test system: COLO 205 colon
A549 NSCLC = test system: A549 NSCLC
BT-549 breast = test system: BT-549 breast
SNB-19 CNS = test system: SNB-19 CNS
UACC-62 melanoma = test system: UACC-62 melanoma
MDA-MB-231 breast = test system: MDA-MB-231 breast
DU-145 prostate = test system: DU-145 prostate
MDA-MB-435 = test system: MDA-MB-435
RXF 393 renal = test system: RXF 393 renal
U251 CNS = test system: U251 CNS
SK-MEL-28 melanoma = test system: SK-MEL-28 melanoma
SF-295 CNS = test system: SF-295 CNS
K-562 leukemia = test system: K-562 leukemia
NCI-H460 lung = test system: NCI-H460 lung
SK-MEL-2 melanoma = test system: SK-MEL-2 melanoma
HCT-15 colon = test system: HCT-15 colon
SN12C renal = test system: SN12C renal
LOX IMVI melanoma = test system: LOX IMVI melanoma
NCI/ADR-RES ovarian = test system: NCI/ADR-RES ovarian
HT29 colon = test system: HT29 colon
UO-31 renal = test system: UO-31 renal
SNB-75 CNS = test system: SNB-75 CNS
IGROV1 ovarian = test system: IGROV1 ovarian
CCRF-CEM leukemia = test system: CCRF-CEM leukemia
SF-539 CNS = test system: SF-539 CNS
OVCAR-4 ovarian = test system: OVCAR-4 ovarian
EKVX NSCLC = test system: EKVX NSCLC
HS 578T breast = test system: HS 578T breast
MOLT-4 leukemia = test system: MOLT-4 leukemia
SK-OV-3 ovarian = test system: SK-OV-3 ovarian
RPMI-8226 leukemia = test system: RPMI-8226 leukemia
HOP-92 NSCLC = test system: HOP-92 NSCLC
SF-268 CNS = test system: SF-268 CNS
NCI-H226 lung = test system: NCI-H226 lung
T-47D breast = test system: T-47D breast
OVCAR-3 ovarian = test system: OVCAR-3 ovarian
OVCAR-5 ovarian = test system: OVCAR-5 ovarian
NCI-H522 lung = test system: NCI-H522 lung
CAKI-1 renal = test system: CAKI-1 renal
A498 renal = test system: A498 renal
SK-MEL-5 melanoma = test system: SK-MEL-5 melanoma
ACHN renal = test system: ACHN renal
SR leukemia = test system: SR leukemia
TK-10 renal = test system: TK-10 renal
KM12 colon = test system: KM12 colon

N#Cc1c(N)nc(N2CCOCC2)c(C#N)c1-c1ccccc1Cl
41.7 µM: TGI (IGROV1 ovarian)
43.4 µM: TGI (UO-31 renal)
72.4 µM: TGI (HOP-92 NSCLC)
32.6 µM: TGI (SNB-75 CNS)
inactive: GI50 (786-0 renal) 62.1 µM | GI50 (NCI-H23 lung) 37.7 µM | GI50 (OVCAR-8 ovarian) 42 µM | GI50 (HOP-62 NSCLC) > 100 µM | GI50 (MCF7 breast) 17.7 µM | GI50 (PC-3 prostate) 22.6 µM | GI50 (HCC-2998 colon) 49.8 µM | GI50 (SW-620 colon) > 100 µM | GI50 (M14 melanoma) 60.9 µM | GI50 (UACC-257 melanoma) 47.9 µM | GI50 (HCT-116 colon) 74.7 µM | GI50 (COLO 205 colon) 38.1 µM | GI50 (A549 NSCLC) 66.5 µM | GI50 (BT-549 breast) 30.5 µM | GI50 (SNB-19 CNS) 48.5 µM | GI50 (UACC-62 melanoma) 18.9 µM | GI50 (MDA-MB-231 breast) 31.2 µM | GI50 (DU-145 prostate) 93.4 µM | GI50 (MDA-MB-435) 80.2 µM | GI50 (RXF 393 renal) 17.5 µM | GI50 (U251 CNS) 50 µM | GI50 (SK-MEL-28 melanoma) 33.6 µM | GI50 (SF-295 CNS) 38.5 µM | GI50 (K-562 leukemia) 60.9 µM | GI50 (NCI-H460 lung) 26.8 µM | GI50 (SK-MEL-2 melanoma) 41.9 µM | GI50 (HCT-15 colon) 41.4 µM | GI50 (SN12C renal) 35.8 µM | GI50 (LOX IMVI melanoma) 56 µM | GI50 (NCI/ADR-RES ovarian) 40.2 µM | GI50 (HT29 colon) 57 µM | GI50 (UO-31 renal) 14.5 µM | GI50 (IGROV1 ovarian) 14.7 µM | GI50 (CCRF-CEM leukemia) 45 µM | GI50 (SF-539 CNS) 43.5 µM | GI50 (OVCAR-4 ovarian) 14.5 µM | GI50 (EKVX NSCLC) 37.6 µM | GI50 (HS 578T breast) 23.6 µM | GI50 (MOLT-4 leukemia) 34.2 µM | GI50 (SK-OV-3 ovarian) 41.2 µM | GI50 (RPMI-8226 leukemia) 21.5 µM | GI50 (HOP-92 NSCLC) 16.9 µM | GI50 (SF-268 CNS) 25.4 µM | GI50 (NCI-H226 lung) 55.5 µM | GI50 (T-47D breast) 21.2 µM | GI50 (OVCAR-3 ovarian) 17.3 µM | GI50 (OVCAR-5 ovarian) 26.4 µM | GI50 (CAKI-1 renal) 32.4 µM | GI50 (A498 renal) 2.28 µM | GI50 (SK-MEL-5 melanoma) 32.4 µM
72.3 µM: TGI (RXF 393 renal)
87.1 µM: TGI (OVCAR-3 ovarian)
85.7 µM: TGI (SF-268 CNS)
active: GI50 (SNB-75 CNS) 0.414 µM | GI50 (NCI-H522 lung) 0.0236 µM
85.3 µM: TGI (OVCAR-4 ovarian)
2.81 µM: TGI (NCI-H522 lung)
> 100 µM: TGI (786-0 renal) | TGI (NCI-H23 lung) | TGI (OVCAR-8 ovarian) | TGI (HOP-62 NSCLC) | TGI (PC-3 prostate) | TGI (HCC-2998 colon) | TGI (SW-620 colon) | TGI (M14 melanoma) | TGI (UACC-257 melanoma) | TGI (HCT-116 colon) | TGI (COLO 205 colon) | TGI (A549 NSCLC) | TGI (BT-549 breast) | TGI (SNB-19 CNS) | TGI (UACC-62 melanoma) | TGI (MDA-MB-231 breast) | TGI (DU-145 prostate) | TGI (MDA-MB-435) | TGI (U251 CNS) | TGI (SK-MEL-28 melanoma) | TGI (SF-295 CNS) | TGI (K-562 leukemia) | TGI (NCI-H460 lung) | TGI (SK-MEL-2 melanoma) | TGI (HCT-15 colon) | TGI (SN12C renal) | TGI (LOX IMVI melanoma) | TGI (NCI/ADR-RES ovarian) | TGI (HT29 colon) | TGI (CCRF-CEM leukemia) | TGI (SF-539 CNS) | TGI (EKVX NSCLC) | TGI (HS 578T breast) | TGI (MOLT-4 leukemia) | TGI (SK-OV-3 ovarian) | TGI (RPMI-8226 leukemia) | TGI (NCI-H226 lung) | TGI (T-47D breast) | TGI (OVCAR-5 ovarian) | TGI (CAKI-1 renal) | TGI (SK-MEL-5 melanoma)
25.2 µM: TGI (A498 renal)
88.7 µM: TGI (MCF7 breast)

CC(C)OC(=O)[C@@H](O)[C@H](CO)C1=CC([Si](C)(C)c2ccccc2)=CON1
> 100 µM: TGI (786-0 renal) | TGI (NCI-H23 lung) | TGI (OVCAR-8 ovarian) | TGI (HOP-62 NSCLC) | TGI (MCF7 breast) | TGI (PC-3 prostate) | TGI (HCC-2998 colon) | TGI (SW-620 colon) | TGI (M14 melanoma) | TGI (ACHN renal) | TGI (UACC-257 melanoma) | TGI (HCT-116 colon) | TGI (COLO 205 colon) | TGI (SR leukemia) | TGI (A549 NSCLC) | TGI (BT-549 breast) | TGI (SNB-19 CNS) | TGI (UACC-62 melanoma) | TGI (MDA-MB-231 breast) | TGI (DU-145 prostate) | TGI (MDA-MB-435) | TGI (RXF 393 renal) | TGI (U251 CNS) | TGI (SK-MEL-28 melanoma) | TGI (SF-295 CNS) | TGI (K-562 leukemia) | TGI (NCI-H460 lung) | TGI (SK-MEL-2 melanoma) | TGI (HCT-15 colon) | TGI (LOX IMVI melanoma) | TGI (NCI/ADR-RES ovarian) | TGI (HT29 colon) | TGI (UO-31 renal) | TGI (TK-10 renal) | TGI (SF-539 CNS) | TGI (OVCAR-4 ovarian) | TGI (EKVX NSCLC) | TGI (MOLT-4 leukemia) | TGI (SK-OV-3 ovarian) | TGI (RPMI-8226 leukemia) | TGI (SF-268 CNS) | TGI (KM12 colon) | TGI (NCI-H226 lung) | TGI (T-47D breast) | TGI (OVCAR-3 ovarian) | TGI (OVCAR-5 ovarian) | TGI (CAKI-1 renal) | TGI (A498 renal) | TGI (SK-MEL-5 melanoma)
69.2 µM: TGI (SNB-75 CNS)
